Source: US20050271676A1, “Inducing cellular immune responses to human immunodeficiency virus-1 using peptide and nucleic acid compositions” (Epimmune Inc., priority 1993, published 2005)
No end group written: not given here.

Tests used:
HLA-A*0301 = target: T1, HLA-A*0301 (Homo sapiens, UniProt P04439); assay: purified HLA class I binding assay, A*0301
T1 construct: endogenous in cells; host or cells: GM3107

HLA-A*3101 = HLA-A*3101 (Homo sapiens, UniProt P04439, A270S/D185E/E176V/E277Q/F33T/G231S/G80R/H175R/I121M/I218V/I322F/K168Q/L300P/L318F/M331R/P217A/Q94H/R138Q/T323A/T345S/T97I/V358M); assay: purified HLA class I binding assay, A*3101
HLA-A*3301 = HLA-A*3301 (Homo sapiens, UniProt P04439, A270S/D185E/E176V/E277Q/E87N/F33T/G231S/H175R/I121M/I218V/I322F/K168Q/K210R/L300P/L318F/M331R/P217A/Q86R/Q94H/R138Q/T323A/T345S/T97I/V358M/Y195H); assay: purified HLA class I binding assay, A*3301
HLA-A*6801 = HLA-A*6801 (Homo sapiens, UniProt P04439, A269V/D185E/E176V/E277Q/E87N/F33Y/G231S/I121M/I166T/I218V/L180W/L300P/L318F/N151K/P208A/P217A/Q86R/R169H/T345S); assay: purified HLA class I binding assay, A*6801
HLA-A*0101 = HLA-A*0101 (Homo sapiens, UniProt P04439, A114D/A174V/A182V/D101N/D185E/E176A/E190D/L180R/Q94H/R68K/S129P/T187R/V100A/V91M/W191G); assay: biochemical; type: binding
HLA-A*1101 = HLA-A*1101 (Homo sapiens, UniProt P04439, A114D/D185E/E176A/F33Y/L180Q/S129P/T187R); assay: purified HLA class I binding assay, A*1101
HLA-DRB1*0301 (DR3) = target: T2, HLA-DRB1*0301 (DR3) (Homo sapiens, UniProt P01903+P01911, A100K/A102G/A103R/A169T/F55Y/I96L/K41T/L162R/M171V/P40S/Q125H/Q178H/Q39Y/R42S/S66N/T106N/T262R/W38E/Y61H); assay: purified HLA class II binding assay, DRB1*0301 (DR3), pH 4.5
T2 construct: endogenous in cells; host or cells: MAT
T2 sequence (P01903 26-254 partner, other chains not shown): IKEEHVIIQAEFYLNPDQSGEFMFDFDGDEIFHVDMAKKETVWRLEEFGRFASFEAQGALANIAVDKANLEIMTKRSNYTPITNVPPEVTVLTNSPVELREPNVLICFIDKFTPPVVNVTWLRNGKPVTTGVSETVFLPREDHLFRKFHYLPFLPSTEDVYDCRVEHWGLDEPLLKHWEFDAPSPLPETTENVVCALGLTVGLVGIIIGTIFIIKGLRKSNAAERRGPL

HLA-DRB1*0701 (DR7) = target: T3, HLA-DRB1*0701 (DR7) (Homo sapiens, UniProt P01903+P01911, A100R/A102G/A103Q/D57E/D86V/E43K/F76Y/K127E/L162R/M171V/P40G/Q125H/Q99D/R33Q/R42Y/R54Q/S133A/S66F/T210M/V115G/Y107V/Y59L/Y89S); assay: biochemical; type: binding
T3 construct: endogenous in cells; host or cells: Pitout

HLA-DRB1*0802 (DR8w2) = target: T4, HLA-DRB1*0802 (DR8w2) (Homo sapiens, UniProt P01903+P01911, A100R/A103L/A169T/F76Y/H45Y/I96F/K41T/L162R/M171V/P40S/Q125H/Q178H/Q39Y/Q99D/R218S/R42G/S66Y/V115G/W38E); assay: biochemical; type: binding
T4 construct: endogenous in cells

HLA-DRB1*1302 (DR6w19) = HLA-DRB1*1302 (DR6w19) (Homo sapiens, UniProt P01903+P01911, A100E/A169T/K41T/L162R/M171V/P40S/Q125H/Q178H/Q39Y/Q99D/R42S/S66N/T262R/V115G/W38E/Y61H); assay: purified HLA class II binding assay, DRB1*1302 (DR6w19)
HLA-DRB1*1501 (DR2w2β1) = target: T5, HLA-DRB1*1501 (DR2w2β1) (Homo sapiens, UniProt P01903+P01911); assay: purified HLA class II binding assay, DRB1*1501 (DR2w2β1)
T5 construct: expressed in transfected cells

HLA-DRB5*0101 (DR2w2β2) = target: T6, HLA-DRB5*0101 (DR2w2β2) (Homo sapiens, UniProt P01903+Q30154); assay: biochemical; type: binding
T6 construct: expressed in transfected cells

HLA-DRB1*0405 (DR4w15) = HLA-DRB1*0405 (DR4w15) (Homo sapiens, UniProt P01903+P01911, A100R/A169T/D86S/F76Y/I96L/K127E/L162R/M171V/N62H/P40V/Q125Y/R42H/S133A/S149N/S66Y/V115G/V209L/W38E); assay: purified HLA class II binding assay, DRB1*0405 (DR4w15)
HLA-DRB1*0901 (DR9) = target: T7, HLA-DRB1*0901 (DR9) (Homo sapiens, UniProt P01903+P01911, A100R/A103E/D57H/D86V/F55Y/F60I/F76Y/I96F/K127E/L162R/M171V/P40D/Q125H/Q99R/R33Q/R42F/S133A/S66N/T210M/V115G/W38K/Y107V/Y59G/Y89S); assay: biochemical; type: binding
T7 construct: endogenous in cells

HLA-DRB1*1101 (DR5w11) = target: T8, HLA-DRB1*1101 (DR5w11) (Homo sapiens, UniProt P01903+P01911, A100R/A169T/A87E/I96F/K41T/L162R/M171V/P40S/Q125H/Q178H/Q39Y/Q99D/R42S/S66Y/T262R/V115G/W38E); assay: biochemical; type: binding
T8 construct: endogenous in cells
T8 sequence (P01903 26-254, other chains not shown): as the sequence (P01903 26-254 partner, other chains not shown) above

HLA-DRB1*1201 (DR5w12) = target: T9, HLA-DRB1*1201 (DR5w12) (Homo sapiens, UniProt P01903+P01911, A100R/A169T/D57E/D86V/F55L/H45Y/K41T/L162R/M171V/P40S/Q125H/Q178H/Q39Y/Q99D/R42G/S66L/T262R/V114A/V67L/W38E/Y59H/Y61H/Y89S); assay: purified HLA class II binding assay, DRB1*1201 (DR5w12)
T9 construct: endogenous in cells

HLA-DRB1*0401 (DR4w4) = target: T10, HLA-DRB1*0401 (DR4w4) (Homo sapiens, UniProt P01903+P01911, A100K/A169T/F76Y/I96L/K127E/L162R/M171V/N62H/P40V/Q125Y/R42H/S133A/S149N/S66Y/V115G/V209L/W38E); assay: purified HLA class II binding assay, DRB1*0401 (DR4w4); conditions: HIV DR super motif peptides; unit not given
T10 construct: endogenous in cells; host or cells: Preiss
T10 sequence (P01903 26-254 partner, other chains not shown): as above

[1] = HIV DR super motif peptides, unit not given

Sequence: KLAGRWPVK [1069.44]
- IC50 (HLA-A*0301): 8.5 nM
- IC50 (HLA-A*3101): 500 nM
- IC50 (HLA-A*3301): 72500 nM
- IC50 (HLA-A*6801): 80000 nM

Sequence: LVAVIIVASGY
- A*0101 (binding affinity ratio) (HLA-A*0101): 0.0390
- A*0101 (binding information) (HLA-A*0101): 0.0390

Sequence: NTPVFAIKK [1273.02]
- IC50 (HLA-A*1101): 100 nM
- IC50 (HLA-A*3101): 30000 nM
- IC50 (HLA-A*3301): 48300 nM

Sequence: QHLLQLTVWGIKQLQ [Peptide 27.0297]
- IC50 (HLA-DRB1*0301 (DR3)): > 20000 nM
- IC50 (HLA-DRB1*0701 (DR7)): 44 nM
- IC50 (HLA-DRB1*0802 (DR8w2)): 907 nM
- IC50 (HLA-DRB1*1302 (DR6w19)): 350 nM
- IC50 (HLA-DRB1*1501 (DR2w2β1)): 21 nM
- IC50 (HLA-DRB5*0101 (DR2w2β2)): 690 nM

Sequence: QKEPPFLWMG
- A*0101 (binding affinity ratio) (HLA-A*0101): 0.0004

Sequence: QKQITKIQNFRVYYR [Peptide 27.0377]
- IC50 (HLA-DRB1*0301 (DR3)): > 20000 nM
- IC50 (HLA-DRB1*0405 (DR4w15)): 49 nM
- IC50 (HLA-DRB1*0701 (DR7)): 25 nM
- IC50 (HLA-DRB1*0802 (DR8w2)): 75 nM
- IC50 (HLA-DRB1*0901 (DR9)): 577 nM
- IC50 (HLA-DRB1*1101 (DR5w11)): 53 nM
- IC50 (HLA-DRB1*1201 (DR5w12)): 124 nM
- IC50 (HLA-DRB1*1302 (DR6w19)): 25 nM
- IC50 (HLA-DRB1*1501 (DR2w2β1)): 3.4 nM
- IC50 (HLA-DRB5*0101 (DR2w2β2)): 80 nM

Sequence: SPEVIFMFSALSEGA
- DR3 binding (HLA-DRB1*0301 (DR3); [1]): −0.0043
- DR4w4 binding (HLA-DRB1*0401 (DR4w4)): 0.1600
- DR7 binding (HLA-DRB1*0701 (DR7)): −0.0007
- DR8w2 binding (HLA-DRB1*0802 (DR8w2)): 0.0130
- DR9 binding (HLA-DRB1*0901 (DR9)): 0.0130
- DR5w11 binding (HLA-DRB1*1101 (DR5w11)): 0.0075
- DR5w12 binding (HLA-DRB1*1201 (DR5w12); [1]): −0.0045
- DR6w19 binding (HLA-DRB1*1302 (DR6w19); [1]): 0.0007
- DR2 wβ1 binding (HLA-DRB1*1501 (DR2w2β1); [1]): 0.0280
- DR2w2β2 binding (HLA-DRB5*0101 (DR2w2β2)): 0.0034

Sequence: TIKIGGQLK [1273.05]
- IC50 (HLA-A*0301): 40.7 nM
- IC50 (HLA-A*3101): 18000 nM
- IC50 (HLA-A*3301): 36300 nM

Sequence: TTLFCASDAK [1273.07]
- IC50 (HLA-A*0301): 120 nM
- IC50 (HLA-A*1101): 27.3 nM
- IC50 (HLA-A*3101): 9470 nM
- IC50 (HLA-A*3301): 14500 nM

Sequence: VMIVWQVDR [Peptide 1273.08]
- IC50 (HLA-A*1101): 273 nM
- IC50 (HLA-A*3101): 3.8 nM
- IC50 (HLA-A*3301): 5.3 nM

Sequence: VTVLDVGDAY [Peptide 1069.26]
- IC50 (HLA-A*0101): 439 nM
